Results from US20180311342A1, “IMMUNOSTIMULATING AGENT” (AJINOMOTO CO., INC., priority 2017, published 2018).

Tests used:
[1] = test system: anti-OVA-specific IgG1 subclass antibody; experiment: Adjuvant activity test: anti-OVA-specific IgG1 subclass antibody in serum of OVA-immunized mice (ELISA); assay type: in vivo, BALB/c mice; conditions: after secondary immunization, serum 2 weeks later; OVA 5 μg + compound 0.256 μmol in 5% αCD-added saline (Addavax mixed with saline at 1:1), dorsal-subcutaneous; compared to OVA single administration group
Experimental: (§1) 8-Week-old female BALB/c mice were divided into groups (N=6), and each group was primarily immunized by dorsal-subcutaneous administration of (1) ovalbumin (OVA) (5 μg) dissolved in saline as an antigen (OVA single administration group), (2) OVA 5 μg and Addavax™ (mixed with saline at 1:1) dissolved in saline (Addavax™ administration group) as positive control adjuvant, (3) OVA 5 μg and SZ137 0.256 μmol dissolved or dispersed in 5% α-cyclodextrin (hereinafter to be simply referred to as αCD)-added saline (SZ137 administration group), (4) OVA (5 μg) and SZ138 (0.256 μmol) dissolved or dispersed in 5% αCD-added saline (SZ138 administration group), (5) OVA (5 μg) and SZ142 (0.256 μmol) dissolved or dispersed in 5% αCD-added saline (SZ142 administration group), (6) OVA (5 μg) and SZ144 (0.256 μmol) dissolved or dispersed in 5% αCD-added saline (SZ144 administration group), (7) OVA (5 μg) and SZ145 (0.256 μmol) dissolved or dispersed in 5% αCD-added saline (SZ145 administration group), (8) OVA (5 μg) and SZ146 (0.256 μmol) dissolved or dispersed in 5% αCD-added saline (SZ146 administration group), (9) OVA (5 μg) and SZ147 (0.256 μmol) dissolved or dispersed in 5% αCD-added saline (SZ147 administration group), (10) OVA (5 μg) and SZ148 (0.256 μmol) dissolved or dispersed in 5% αCD-added saline (SZ148 administration group), each per mouse. Two week later, the secondary immunization was carried out by dorsal-subcutaneous administration of solutions or dispersions similar to those of the above-mentioned (1)-(10) again. Two weeks from the secondary immunization, the whole blood was extracted under anesthesia, and the obtained serum sample was measured for anti-OVA-specific IgG1 subclass antibody, anti-OVA-specific IgG2a subclass antibody, and anti-OVA-specific IgE antibody.
(§2) The measurement method of the anti-OVA-specific IgG1 subclass antibody and anti-OVA-specific IgG2a subclass antibody in Experimental Example 1 and the following Experimental Examples 2-10 is as follows.
(§3) To a 96 well plate was added 5 μg/ml OVA at 100 µl/well, and the mixture was incubated at 4° C. overnight. After incubation, the mixture was washed three times with 200 μl of PBS-T (PBS (phosphate buffered saline)+0.05% (v/v) Tween 20) per well, and blocked with 100 μl of 5% FCS (fetal calf serum)/PBS solution per well at room temperature for 1-2 hr. Thereafter, the mixture was washed three times with PBS-T (200 μl/well), a diluted serum sample (100 l/well) or the same amount of 5% FCS/PBS solution as a control was added, and the mixture was incubated at 37° C. for 1 hr. To calculate concentration of the antibody, the standard of an anti-OVA-specific IgG1 subclass antibody diluted with 2% FCS/PBS solution was added at 100 ng/ml, 50 ng/ml, 25 ng/ml, 12.5 ng/ml, 6.25 ng/ml, 3.125 ng/ml, 1.56 ng/ml, 0.781 ng/ml, 0.391 ng/ml, 0.195 ng/ml, 0.098 ng/ml, 0 ng/ml, per 1 well. When an anti-OVA-specific IgG2a subclass antibody was measured, the standard of an anti-OVA-specific IgG2a subclass antibody was added at 50 ng/ml, 25 ng/ml, 12.5 ng/ml, 6.25 ng/ml, 3.125 ng/ml, 1.56 ng/ml, 0.781 ng/ml, 0.391 ng/ml, 0.195 ng/ml, 0.098 ng/ml, 0.049 ng/ml, 0 ng/ml, per 1 well. Thereafter, similar to the samples, the mixture was washed five times with PBS-T (200 μl/well), a diluted biotinylated anti-mouse IgG1 antibody and IgG2a antibody were added (100 μl/well), and the mixture was incubated at 37° C. for 45 min. Thereafter, the mixture was washed five times with PBS-T (200 μl/well), a diluted anti-biotin-HRP antibody was added (100 μl/well), and the mixture was incubated at 37° C. for another 30 min. Thereafter, the mixture was washed five times with PBS-T (200 μl/well), TMB substrate solution was added (100 μl/well), and the mixture was incubated at room temperature for 10-15 min. Thereafter, a reaction quenching liquid (2N sulfuric acid solution) was added (50 l/well) to discontinue a color developing reaction, and the absorbance (OD Value=450 nm) was measured by a microplate reader. […]

[2] = test system: anti-OVA-specific IgG2a subclass antibody; experiment: Adjuvant activity test: anti-OVA-specific IgG2a subclass antibody in serum of OVA-immunized mice (ELISA); assay type: in vivo, BALB/c mice; conditions: after secondary immunization, serum 2 weeks later; OVA 5 μg + compound 0.256 μmol in 5% αCD-added saline (Addavax mixed with saline at 1:1), dorsal-subcutaneous; compared to OVA single administration group
Experimental: as §1, §2, §3

| SMILES | anti-OVA-specific IgG1 subclass antibody production [1] | anti-OVA-specific IgG2a subclass antibody production [2] |
| --- | --- | --- |
| CCCCCCCCCCCCCCCCNC(=O)N[C@@H](CC(C)C)C(=O)NCCCCCCCC [SZ201, (2S)-2-(hexadecylcarbamoylamino)-4-methyl-N-octyl-pentanamide] | tended to increase | tended to increase |
| CCCCCCCCCCCCCCCCCCCC(=O)N[C@@H](CCCNC(=N)N)C(=O)NCCCCCCCC.Cl [SZ183, N-[(1S)-4-guanidino-1-(octylcarbamoyl)butyl]icosanamide hydrochloride] | significant enhancement | significant enhancement |
| CCCCCCCCCCCCCCCCOC(=O)N[C@@H](CCCCN)C(=O)NCCCCCCCC.Cl [SZ188, hexadecyl N-[(1S)-5-amino-1-(octylcarbamoyl)pentyl]carbamate hydrochloride] | showed a tendency to increase | showed a tendency to increase |
| CCCCCCCCCCCCCCCCCCCCCC(=O)N[C@@H](C)C(=O)NCCCCCCCCCCCC [SZ145, N-[(1S)-2-(dodecylamino)-1-methyl-2-oxo-ethyl]docosanamide] | showed a tendency to increase | showed a tendency to increase |
| CCCCCCCCCCCCCCCCCCCCCC(=O)N1CCC(C(=O)NCCCCCCCCCCCC)CC1 [SZ156, 1-docosanoyl-N-dodecyl-piperidine-4-carboxamide] | showed a tendency to increase | showed a tendency to increase |
| CCCCCCCCCCCCCCCCCCCCCC(=O)N[C@@H](CCCNC(=N)N)C(=O)NCCCCCCCCCCCC.Cl [SZ138, N-[(1S)-1-(dodecylcarbamoyl)-4-guanidino-butyl]docosanamide hydrochloride] | showed a tendency to increase | showed a tendency to increase |
| CCCCCCCCCCCCCCCCNC(=O)N[C@@H](CCCNC(=N)N)C(=O)NCCCCCC.Cl [SZ168, (2S)-5-guanidino-2-(hexadecylcarbamoylamino)-N-hexyl-pentanamide hydrochloride] | tended to increase | tended to increase |
| CCCCCCCCCCCCCCCC(=O)N[C@@H](CC(C)C)C(=O)NCCCCCCCC [SZ199, N-[(1S)-3-methyl-1-(octylcarbamoyl)butyl]hexadecanamide] | significant enhancement | tended to increase |
| CCCCCCCCCCCCCCCCCC(=O)N[C@@H](CCCCNC(=N)N)C(=O)NCCCCCCCCCCCC.Cl [SZ205, N-[(1S)-1-(dodecylcarbamoyl)-5-guanidino-pentyl]octadecanamide hydrochloride] | significant enhancement | significant enhancement |
| CCCCCCCCCCCCCCCCCCCC(=O)N[C@@H](CCCNC(=N)N)C(=O)NCCCCCCCCCCCC.Cl [SZ180, N-[(1S)-1-(dodecylcarbamoyl)-4-guanidino-butyl]icosanamide hydrochloride] | significant enhancement | significant enhancement |
| CCCCCCCCCCCCCCCCCCCCCC(=O)N[C@@H](CC(C)C)C(=O)NCCCCCCCCCCC [SZ142, N-[(1S)-3-methyl-1-(undecylcarbamoyl)butyl]docosanamide] | showed a tendency to increase | showed a tendency to increase |
| CCCCCCCCCCCCCCCCCCCCCC(=O)NCC(C)(C)C(=O)NCCCCCCCCCCCC [SZ148, N-[3-(dodecylamino)-2,2-dimethyl-3-oxo-propyl]docosanamide] | showed a tendency to increase | showed a tendency to increase |
| CCCCCCCCCCCCCCCCCC(=O)N[C@@H](CCCCN)C(=O)NCCCCCCCC.Cl [SZ184, N-[(1S)-5-amino-1-(octylcarbamoyl)pentyl]octadecanamide hydrochloride] | showed a tendency to increase | showed a tendency to increase |
| CCCCCCCCCCCCCCCCCCCCCC(=O)NC(C)(C)C(=O)NCCCCCCCCCCCC [SZ146, N-[2-(dodecylamino)-1,1-dimethyl-2-oxo-ethyl]docosanamide] | showed a tendency to increase | showed a tendency to increase |
| CCCCCCCCCCCCCCCCCC(=O)N[C@H](CCCNC(=N)N)C(=O)NCCCCCCCCCCCC.Cl [SZ191, N-[(1R)-1-(dodecylcarbamoyl)-4-guanidino-butyl]octadecanamide hydrochloride] | significant enhancement | significant enhancement |
| CCCCCCCCCCCCCCCCNC(=O)N[C@@H](CCCNC(=N)N)C(=O)NCCCCCCCC.Cl [SZ210, (2S)-5-guanidino-2-(hexadecylcarbamoylamino)-N-octyl-pentanamide hydrochloride] | significant enhancement | significant enhancement |
| CCCCCCCCCCCCCCCCOC(=O)N[C@@H](CCCNC(=N)N)C(=O)NCCCCCC.Cl [SZ169, Hexadecyl N-[(1S)-4-guanidino-1-(hexylcarbamoyl)butyl]carbamate hydrochloride] | tended to increase | tended to increase |
| CCCCCCCCCCCCCCCCCCCCCC(=O)N[C@@H](CCCN)C(=O)NCCCCCCCCCCCC.Cl [SZ165, N-[(1S)-4-amino-1-(dodecylcarbamoyl)butyl]docosanamide hydrochloride] | tended to increase | tended to increase |
| CCCCCCCCCCCCCCCCCC(=O)NCC(C)(C)C(=O)NCCCCCCCCCCCC [SZ204, N-[3-(dodecylamino)-2,2-dimethyl-3-oxo-propyl]octadecanamide] | significant enhancement | tended to increase |
| CCCCCCCCCCCCCCCCCCCCCC(=O)N[C@@H](CCCCNC(C)=O)C(=O)NCCCCCCCCCCCC [SZ167, N-[(1S)-5-acetamide-1-(dodecylcarbamoyl)pentyl]docosanamide] | tended to increase | tended to increase |
| CCCCCCCCCCCCCCCCCC(=O)N[C@@H](CCCCNC(=N)N)C(=O)NCCCCCC.Cl [SZ206, N-[(1S)-1-(hexylcarbamoyl)-5-guanidino-pentyl]octadecanamide hydrochloride] |  | significant enhancement |
